Results from PMC11279841, “New Members of the Centrapalus Coumarin and Pauciflorin Series from Centrapalus pauciflorus” (Pharmaceutics, 2024).
Where two headings read alike, the source gives them in different places.

Legend:
[1] = system: Leishmania major promastigotes; parameters: method as in PMID 9170288; conditions: in vitro; cited from earlier work
[2] = system: Plasmodium falciparum schizonts; parameters: method as in PMID 9170288; conditions: in vitro; cited from earlier work
human lymphocytes = system: human lymphocytes; parameters: method as in PMID 9170288; conditions: cited from earlier work
HeLa cells [3] = assay: MTT antiproliferative assay, HeLa cervical cancer cells; type: cell-based, human; conditions: for inhibition at 10 µM / inhibition at 30 µM: Homo sapiens, read-out: Inhibition (%) ± SEM
From the text: (§1) The antiproliferative activities of the isolated compounds were investigated on a panel of human adherent cancer cell lines using the 3-(4,5-dimethylthiazol-2-yl)-2,5-diphenyltetrazolium bromide) (MTT) assay. Cell lines isolated from cervical (HeLa and SiHa), breast (MCF-7 and MDA-MB-231), ovarian cancers (A2780), and non-malignant mouse fibroblasts (NIH/3T3) were purchased from the European Collection of Cell Cultures (Salisbury, UK). The SiHa cell line was obtained from the […] (Manassas, VA, USA). The cell culturing and determination of the antiproliferative effects of the isolated compounds were conducted using a methodology described previously. Calculations were performed using GraphPad Prism 5.01 software (GraphPad Software Inc., San Diego, CA, USA).
(§2) The antiproliferative properties of centrapalus coumarins N (2) and O (5) were investigated against a panel of human adherent tumor cell lines of gynecological origin by in vitro MTT assay (Table 4). The amounts of the other compounds were insufficient for the in vitro assay. Compounds 2 and 5 were tested on the breast (MCF-7, MDA-MB-231), cervical (HeLa, SiHa), and ovarian (A2780) cancer cells in two concentrations (10 and 30 µM). The anticancer agent cisplatin was used as a positive control. […] Non-cancerous mouse fibroblasts (NIH/3T3) were additionally included to characterize the cancer selectivity of the tested compounds. Since compounds 2 and 5 elicited weak action against fibroblasts, lower than against the ovarian cancer cells, their effect detected on A2780 cells could be regarded as selective.

[4] = system: NIH/3T3 mouse fibroblasts; assay: MTT antiproliferative assay, non-malignant NIH/3T3 fibroblasts; type: cell-based; conditions: for inhibition at 10 µM / inhibition at 30 µM: Mus musculus, NIH3T3, read-out: Inhibition (%) ± SEM; for action against fibroblasts (in words): NIH/3T3, lower than against the ovarian cancer cells
From the text: as §1, §2

MCF-7 cells [5] = assay: MTT antiproliferative assay, MCF-7 breast cancer cells; type: cell-based, human; conditions: for inhibition at 10 µM / inhibition at 30 µM: Homo sapiens, read-out: Inhibition (%) ± SEM
From the text: as §1, §2

MDA-MB-231 cells = assay: MTT antiproliferative assay, MDA-MB-231 breast cancer cells; type: cell-based, human; conditions: for inhibition at 10 µM / inhibition at 30 µM: Homo sapiens, read-out: Inhibition (%) ± SEM
From the text: as §1, §2

A2780 cells [6] = assay: MTT antiproliferative assay, A2780 ovarian cancer cells; type: cell-based, human; conditions: for IC50: A2780, read-out: Calculated IC50 Value (converted); for inhibition at 10 µM / inhibition at 30 µM: read-out: Inhibition (%) ± SEM
From the text: as §1, §2

SiHa cells [7] = assay: MTT antiproliferative assay, SiHa cervical cancer cells; type: cell-based, human; conditions: for inhibition at 10 µM / inhibition at 30 µM: Homo sapiens, read-out: Inhibition (%) ± SEM
From the text: as §1, §2

SiHa cells [8] = system: SiHa cells; parameters: method as in doi:10.1016/j.arabjc.2023.104777; conditions: previous work; cited from earlier work
A2780 cells [9] = system: A2780 cells; parameters: method as in doi:10.1016/j.arabjc.2023.104777; conditions: previous work; cited from earlier work
HeLa cells [10] = conditions: cited from earlier work
MCF-7 cells [11] = conditions: cited from earlier work
[12] = system: MCF-7, MDA-MB-231, HeLa, SiHa and A2780 cells; conditions: previous antiproliferative assay; cited from earlier work
[13] = system: A549, HCT116, SK-HEP-1, and HL-60; parameters: method as in PMID 29641986; conditions: four cancer cell lines; cited from earlier work
Biomphalaria glabrata = conditions: cited from earlier work
Bulinus truncatus = conditions: cited from earlier work
[14] = read-out: Calculated IC50 Value (converted)
[15] = ref our previous studies, read-out: IC50 (remarkable antiproliferative activity)

Compound: Cc1cccc2oc(=O)c3c(c12)O[C@@H](C)[C@@]3(C)CC(=O)[C@@H]1OC1(C)C [2′-epicycloisobrachycoumarinone epoxide]
- activity against Leishmania major promastigotes (in words) [1]: exhibited activity
- activity against Plasmodium falciparum schizonts (in words) [2]: exhibited activity
- inhibition on the proliferation of human lymphocytes (in words) (human lymphocytes): weak inhibition

Compound: N.N.[Cl][Pt][Cl] [Cisplatin, cisplatin, reference compound]
- Inhibition (%) ± SEM (HeLa cells [3]; 10 µM): 42.61 ± 2.33%
- Inhibition (%) ± SEM (HeLa cells [3]; 30 µM): 99.93 ± 0.26%
- IC50 (HeLa cells [3]; [14]): 12.4 µM
- Inhibition (%) ± SEM ([4]; NIH/3T3, 10 µM): 73.88 ± 1.63%
- Inhibition (%) ± SEM ([4]; NIH/3T3, 30 µM): 97.10 ± 0.15%
- IC50 ([4]; NIH/3T3, read-out: Calculated IC50 Value (converted)): 5.5 µM
- Inhibition (%) ± SEM (MCF-7 cells [5]; MCF7, 10 µM): 66.91 ± 1.81%
- Inhibition (%) ± SEM (MCF-7 cells [5]; MCF7, 30 µM): 96.80 ± 0.35%
- IC50 (MCF-7 cells [5]; MCF7, read-out: Calculated IC50 Value (converted)): 5.78 µM
- Inhibition (%) ± SEM (MDA-MB-231 cells; MDA-MB-231, 10 µM): 42.72 ± 2.68%
- Inhibition (%) ± SEM (MDA-MB-231 cells; MDA-MB-231, 30 µM): 86.44 ± 0.42%
- IC50 (MDA-MB-231 cells; MDA-MB-231, read-out: Calculated IC50 Value (converted)): 10.2 µM
- Inhibition (%) ± SEM (A2780 cells [6]; A2780, 10 µM): 83.57 ± 2.21%
- Inhibition (%) ± SEM (A2780 cells [6]; A2780, 30 µM): 95.02 ± 0.28%
- IC50 (A2780 cells [6]): 1.3 µM
- Inhibition (%) ± SEM (SiHa cells [7]; 10 µM): 60.98 ± 0.92%
- Inhibition (%) ± SEM (SiHa cells [7]; 30 µM): 88.95 ± 0.53%
- IC50 (SiHa cells [7]; [14]): 4.29 µM

Compound: C=CC1(C)CC(=O)C2C(=O)c3c(C)cccc3OC21C1(C)Cc2c(c3c(C)cccc3oc2=O)O1 (centres unmarked) [Compound 2, centrapalus coumarin N]
- inhibition at 10 µM (HeLa cells [3]; 10 µM): < 20%
- inhibition at 30 µM (HeLa cells [3]; 30 µM): 41.8 ± 1.42%
- inhibition at 10 µM ([4]; NIH/3T3, 10 µM): < 20%
- inhibition at 30 µM ([4]; NIH/3T3, 30 µM): 48.5 ± 2.2%
- action against fibroblasts (in words) [4]: weak action
- inhibition at 10 µM (MCF-7 cells [5]; MCF7, 10 µM): 34.6 ± 2.19%
- inhibition at 30 µM (MCF-7 cells [5]; MCF7, 30 µM): 44.2 ± 1.76%
- inhibition at 10 µM (MDA-MB-231 cells; MDA-MB-231, 10 µM): < 20%
- inhibition at 30 µM (MDA-MB-231 cells; MDA-MB-231, 30 µM): 25.4 ± 2.06%
- IC50 (A2780 cells [6]; Homo sapiens): 20.1 µM
- inhibition at 10 µM (A2780 cells [6]; Homo sapiens, A2780, 10 µM): 27.7 ± 1.34%
- inhibition at 30 µM (A2780 cells [6]; Homo sapiens, A2780, 30 µM): 66.2 ± 0.7%
- antiproliferative activity against ovarian cancer cells (in words) (A2780 cells [6]): considerable and selective
- inhibition at 10 µM (SiHa cells [7]; 10 µM): < 20%
- inhibition at 30 µM (SiHa cells [7]; 30 µM): 30.7 ± 1.49%

Compound: C=C[C@@]1(C)C[C@@H](/C=C(\C)C(=O)OC)Oc2c1c(=O)oc1cccc(C)c21 [Compound 5, (3′R),(5′S)-(E)-methyl 3-(4,10-dimethyl-5-oxo-4-vinyl-2,3,4,5-tetrahydropyrano[3,2-c]chromen-2-yl)-2-methyl acrylate]
- inhibition at 10 µM (HeLa cells [3]; 10 µM): < 20%
- inhibition at 30 µM (HeLa cells [3]; 30 µM): 31.3 ± 1.18%
- inhibition at 10 µM ([4]; NIH/3T3, 10 µM): < 20%
- inhibition at 30 µM ([4]; NIH/3T3, 30 µM): 28.4 ± 2.5%
- action against fibroblasts (in words) [4]: weak action
- inhibition at 10 µM (MCF-7 cells [5]; MCF7, 10 µM): < 20%
- inhibition at 30 µM (MCF-7 cells [5]; MCF7, 30 µM): 35.5 ± 1.51%
- inhibition at 10 µM (MDA-MB-231 cells; MDA-MB-231, 10 µM): < 20%
- inhibition at 30 µM (MDA-MB-231 cells; MDA-MB-231, 30 µM): 25.5 ± 1.2%
- IC50 (A2780 cells [6]; Homo sapiens): 16 µM
- inhibition at 10 µM (A2780 cells [6]; Homo sapiens, A2780, 10 µM): 27.4 ± 1.55%
- inhibition at 30 µM (A2780 cells [6]; Homo sapiens, A2780, 30 µM): 69.3 ± 1.12%
- antiproliferative activity against ovarian cancer cells (in words) (A2780 cells [6]): considerable and selective
- inhibition at 10 µM (SiHa cells [7]; 10 µM): < 20%
- inhibition at 30 µM (SiHa cells [7]; 30 µM): 33.3 ± 1.32%

Compound: C=C[C@@]1(C)C[C@@]2(C=C(C)C(=O)O2)Oc2c1c(=O)oc1cccc(C)c21 [Compound 6]
- IC50 (SiHa cells [8]): 18.9 µM
- IC50 (A2780 cells [9]): 29.9 µM
- IC50 (HeLa cells [10]; previous work, read-out: IC50): 14.6 µM
- IC50 (MCF-7 cells [11]; previous work, read-out: IC50): 15.3 µM

Compound: C=C[C@]1(C)C[C@@H](C=C(C)C)Oc2c1c(=O)oc1cccc(C)c21 [Compound 7, Centrapalus coumarin A]
- IC50 (A2780 cells [9]): 19.7 µM
- IC50 (HeLa cells [10]; previous work, read-out: IC50): 9.21 µM
- IC50 (HeLa cells [10]; [15]): < 10 µM
- IC50 (MCF-7 cells [11]; [15]): < 10 µM

Compound: CC1=C[C@H](C[C@]2(C)c3c(c4c(C)cccc4oc3=O)O[C@@H]2C)OC1=O [Compound 8, Hoehnelia coumarin]
- antiproliferative activity (in words) [12]: ineffective

Compound: C/C(=C\CC[C@@]1(C)C=Cc2c(O)cc(C)cc2O1)CC(=O)CC(C)C [anthopogochromene B]
- cytotoxic activity (in words) [13]: moderate cytotoxic activity

Compound: Cc1cccc2oc(=O)c3c(c12)O[C@H](C)[C@@]3(C)CC(=O)[C@@H]1OC1(C)C [cycloisobrachycoumarinone epoxide]
- activity against Leishmania major promastigotes (in words) [1]: exhibited activity
- activity against Plasmodium falciparum schizonts (in words) [2]: exhibited activity
- inhibition on the proliferation of human lymphocytes (in words) (human lymphocytes): weak inhibition

Compound: Ethuliacoumarin A
- molluscicidal activity (in words) (Biomphalaria glabrata): molluscicidal activity
- molluscicidal activity (in words) (Bulinus truncatus): molluscicidal activity

Compound: centrapalus coumarin B
- IC50 (HeLa cells [10]; [15]): < 10 µM
- IC50 (MCF-7 cells [11]; [15]): < 10 µM

Compound: centrapalus coumarin F
- IC50 (HeLa cells [10]; [15]): < 10 µM
- IC50 (MCF-7 cells [11]; [15]): < 10 µM

Compound: isoethuliacoumarin A
- molluscicidal activity (in words) (Biomphalaria glabrata): molluscicidal activity
- molluscicidal activity (in words) (Bulinus truncatus): molluscicidal activity

Compound: pauciflorin F
- IC50 (HeLa cells [10]; [15]): < 10 µM
- IC50 (MCF-7 cells [11]; [15]): < 10 µM
